# Experimental data taken from patent US7217730B2, “Method for the use of pyranoindole derivatives to treat infection with Hepatitis C virus” (Wyeth, priority 2002, dated 2007).
# Where two headings read alike, the source gives them in different places.
# Biological target: T1, NS5B from the BK strain (genotype 1b) (Hepatitis C virus genotype 1b, UniProt P26663)
# T1 construct: NS5B from the BK strain (genotype 1b) is expressed in E. coli as a protein in which the 21 C-terminal amino acids are replaced; made in house; host or cells: E. coli
# T1 sequence (P26663 2420-2989): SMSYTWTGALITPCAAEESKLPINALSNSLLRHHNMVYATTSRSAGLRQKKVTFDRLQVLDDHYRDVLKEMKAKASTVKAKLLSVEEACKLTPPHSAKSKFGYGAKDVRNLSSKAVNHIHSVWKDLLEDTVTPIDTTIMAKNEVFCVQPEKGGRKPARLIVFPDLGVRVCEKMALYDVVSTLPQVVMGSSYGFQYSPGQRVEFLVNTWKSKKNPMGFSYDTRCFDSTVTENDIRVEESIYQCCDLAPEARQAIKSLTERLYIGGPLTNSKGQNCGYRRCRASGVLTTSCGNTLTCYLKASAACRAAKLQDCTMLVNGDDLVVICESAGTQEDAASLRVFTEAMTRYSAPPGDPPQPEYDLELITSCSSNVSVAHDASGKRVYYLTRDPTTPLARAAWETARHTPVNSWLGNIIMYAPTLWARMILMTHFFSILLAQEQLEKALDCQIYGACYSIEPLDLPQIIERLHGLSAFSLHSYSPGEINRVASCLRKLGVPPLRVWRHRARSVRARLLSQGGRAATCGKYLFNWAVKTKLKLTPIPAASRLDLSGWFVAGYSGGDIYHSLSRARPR
# Experiment: Hepatitis C polymerase inhibition, NS5B BK strain, 33P-GTP filter assay
# Format: biochemical
# Conditions: for inhibition at 20 µM: read-out: HCV pol % inh at 20 μM; for IC50: NS5B BK strain, read-out: HCV pol BK IC50
# From the text: The ability of the compounds of the present invention to inhibit Hepatitis C Polymerase was established by the following experimental procedure: • NS5B from the BK strain (genotype 1b) is expressed in E. coli as a protein in which the 21 C-terminal amino acids are replaced with a short linker and a hexahistidine tag ([…]). The purified protein is mixed with radioactive nucleotides and allowed to replicate a heteropolymeric RNA substrate, primed by an endogenous short hairpin, resulting in an approximately 760 nt product. The radioactive product is captured on a filter and quantitated after removal of the unincorporated nucleotides.
# Reagents: • 10 mM uridine 5′-triphosphate (UTP) (Promega # p116B) • 10 mM adenine 5′-triphosphate (ATP) (Promega # p113B) • 10 mM cytidine 5′-triphosphate (CTP) (Promega # p114B) • 10 mM guanine 5′-triphosphate (GTP) (Promega # p115B) • Bovine Serum Albumin (BSA) 10 mg/ml NEB (100× at 10 mg/ml) #007-BSA • RNasein (Promega #N251X) 40 U/μl • A-[33P]-GTP (NEN-easytides NEG/606H 3000 Ci/mmol, 370 MBq/ml, 10 mCi/ml) • Falcon polypropylene 96 well plates (Becton Dickinson # 351190) • Millipore Multiscreen assasy system-96 well-filtration plate #MADE NOB 50 • Optiphase Supermix (Wallac) formulated by Fisher • Millipore Multiscreen liner for use in microbeta 1450-106 casette [(Wallac) Perkin Elmer #1450-433] • 1 M(N-[2-hydroxyethyl]piperazine-N′-[2-ethanesulfonic acid]) (HEPES), pH 7.3 • Amersham Pharmacia Biotec (US16924-500 ml) • 1 M MgCl2 (SIGMA #M1028) • Dithiothreitol (DTT) (solid) (SIGMA #D9779) • RNase free water (GIBCO-BRL #10977-023) • Dimethyl sulfoxide (Aldrich #27685-5) • Basilen Blue (Sigma, B5520) • 0.5M ethylenediaminetetraacetic acid (EDTA), pH 8 (GIBCO-BRL #15575-020) • Dibasic sodium phosphate (7-hydrate) (Na2HPO4.7H2O; Baker#3824-07) • Phosphoric acid (Baker, #0262.02)
# Further reagent preparation: • 0.5 M Na Phosphate buffer. Per liter, weigh 134 gr Na2HPO4.7H2O, add water to 900 ml. Adjust pH to 7.0 with phosphoric acid. Top off with water to 1 L. • Dilute nucleotides 1:1000 to 10 μM (GTP and CTP) or 1:100 to 100 μM (ATP and UTP) into RNase free water.
# Procedure: • (1) Compounds 10 μl at 10 μg/ml in 15% dimethylsulfoxide (DMSO)
# When starting from 100 μg/ml compound stock in […]: • Dispense 5 μl 30% DMSO per well • Dispense 5 μl compound (100 μg/ml) per well.
# When starting from 50 μg/ml compound stock in 15% DMSO: • Add 10 μl compound per well. • (2) Enzyme Mix:
# Add 20 μl enzyme mix into each well of the assay plate. Incubate compound and enzyme at room temperature for 15 minutes • (3) Template mix—prepare ahead
# Spin down a tube of RNA (5 μg/tube stored in 75% ethanol and 0.3 M sodium acetate) in a microcentrifuge for 20 minutes at 4° C. One tube is enough for 1–1.5 plates. Remove as much ethanol from the tube as possible by inverting the tube. Be gentle, pellet RNA may not adhere to the tube. Vacuum dry the RNA. Resuspend the RNA by adding 1 ml of DEPC water, close the cap of the tube tightly. To dissolve RNA, incubate RNA solution on ice for ˜60 minutes and gently vortex. Spin briefly to ensure all RNA solution is down to the bottom of the tube before opening cap. Gently transfer RNA solution into a 5 ml or larger tube. Add another 3 ml of DEPC water (total 4 ml of volume).
# Add the following volumes of reagents
# Add 20 μl template mix per reaction (i.e. 20 ng of pOF per reaction or ˜3 nM) • (4) Incubate reaction at room temperature (22–25° C.) for 2 hours. • (5) Stop reaction by adding 50 μl of 170 mM EDTA. • Final concentration of EDTA is 85 mM. • (6) Prewet filters of Millipore multiscreen assay plate by adding 200 μl of 0.5 M sodium phosphate buffer, pH 7.0 into each well. Let stand at room temperature for 2–3 minutes. • (7) Place the multiscreen filter plate onto a Millipore Manifold and turn on vacuum to allow buffer to flow through. Turn off vacuum. Transfer 80 μl of the reaction product into each well of the filter plate. Let stand for 2–3 minutes. […]
SMILES,"inhibition at 20 µM (Table 1A, 20 μM compound)",IC50 (Table 1A),inhibition at 20 µM
"CCCC1(CC(=O)O)OCCc2c1[nH]c1cccc(-c3ccc(C)cc3)c21 (stereo not drawn) [Example 32, [5-(4-methylphenyl)-1-propyl-1,3,4,9-tetrahydropyrano[3,4-b]indol-1-yl]acetic acid]",< 5%,> 20 µM,
"CCCC1(CC(=O)O)OCCc2c1[nH]c1cccc(-c3ccc(OC)cc3)c21 (stereo not drawn) [Example 33, [5-(4-methoxyphenyl)-1-propyl-1,3,4,9-tetrahydropyrano[3,4-b]indol-1-yl]acetic acid]",< 5%,> 20 µM,
"CCCC1(CC(=O)O)OCCc2c1[nH]c1cccc(-c3ccc(Cl)cc3)c21 (stereo not drawn) [Example 34, (5-(4-chlorophenyl)-1-propyl-1,3,4,9-tetrahydropyrano[3,4-b]indol-1-yl]acetic acid]",5%,> 20 µM,
"CCCC1(CC(=O)O)OCCc2c1[nH]c1cccc(-c3ccc(Cl)cc3Cl)c21 (stereo not drawn) [Example 35, [5-(2,4-dichlorophenyl)-1-propyl-1,3,4,9-tetrahydropyrano[3,4-b]indol-1-yl]acetic acid]",35%,> 20 µM,
"CCCC1(CC(=O)O)OCCc2c1[nH]c1cccc(-c3ccc(C(F)(F)F)cc3)c21 (stereo not drawn) [Example 36, {1-propyl-5-[4-(trifluoromethyl)phenyl]-1,3,4,9-tetrahydropyrano[3,4-b]indol-1-yl}acetic acid]",4%,> 20 µM,
"CCCC1(CC(=O)O)OCCc2c1[nH]c1cccc(-c3cccs3)c21 (stereo not drawn) [Example 37, (1-propyl-5-thien-2-yl-1,3,4,9-tetrahydropyrano[3,4-b]indol-1-yl)acetic acid]",28%,> 20 µM,
"CCCC1(CC(=O)O)OCCc2c1[nH]c1cccc(-c3ccc4ccccc4c3)c21 (stereo not drawn) [Example 38, [5-(2-naphthyl)-1-propyl-1,3,4,9-tetrahydropyrano[3,4-b]indol-1-yl]acetic acid]",11%,> 20 µM,
"CCCC1(CC(=O)O)OCCc2c1[nH]c1cccc(-c3ccc(-c4ccccc4)cc3)c21 (stereo not drawn) [Example 39, [5-(1,1′-biphenyl-4-yl)-1-propyl-1,3,4,9-tetrahydropyrano[3,4-b]indol-1-yl]acetic acid]",7%,> 20 µM,
"CCCC1(CC(=O)O)OCCc2c1[nH]c1cccc(-c3ccco3)c21 (stereo not drawn) [Example 40, [5-(2-furyl)-1-propyl-1,3,4,9-tetrahydropyrano[3,4-b]indol-1-yl]acetic acid]",27%,> 20 µM,
"CCCC1(CC(=O)O)OCCc2c1[nH]c1cccc(-c3ccc(Br)cc3)c21 (stereo not drawn) [Example 41, [5-(4-bromophenyl)-1-propyl-1,3,4,9-tetrahydropyrano[3,4-b]indol-1-yl]acetic acid]",13%,> 20 µM,
"CCCC1(CC(=O)O)OCCc2c1[nH]c1cccc(-c3ccccc3C)c21 (stereo not drawn) [Example 42, [5-(2-methylphenyl)-1-propyl-1,3,4,9-tetrahydropyrano[3,4-b]indol-1-yl]acetic acid]",31%,> 20 µM,
"CCCC1(CC(=O)O)OCCc2c1[nH]c1cccc(-c3ccccc3OC)c21 (stereo not drawn) [Example 43, [5-(2-methoxyphenyl)-1-propyl-1,3,4,9-tetrahydropyrano[3,4-b]indol-1-yl]acetic acid]",,> 20 µM,83%
"CCCC1(CC(=O)O)OCCc2c1[nH]c1cccc(-c3ccccc3Cl)c21 (stereo not drawn) [Example 44, [5-(2-chlorophenyl)-1-propyl-1,3,4,9-tetrahydropyrano[3,4-b]indol-1-yl]acetic acid]",41%,> 20 µM,
"CCCC1(CC(=O)O)OCCc2c1[nH]c1cccc(-c3ccccc3C(F)(F)F)c21 (stereo not drawn) [Example 45, (1-propyl-5-[2-(trifluoromethyl)phenyl]-1,3,4,9-tetrahydropyrano[3,4-b]indol-1-yl)acetic acid]",14%,> 20 µM,
"CCCC1(CC(=O)O)OCCc2c1[nH]c1cccc(-c3ccc(SC)cc3)c21 (stereo not drawn) [Example 46, (5-[4-(methylthio)phenyl]-1-propyl-1,3,4,9-tetrahydropyrano[3,4-b]indol-1-yl)acetic acid]",15%,> 20 µM,
"CCCC1(CC(=O)O)OCCc2c1[nH]c1cccc(-c3cccc(OC)c3)c21 (stereo not drawn) [Example 47, [5-(3-methoxyphenyl)-1-propyl-1,3,4,9-tetrahydropyrano[3,4-b]indol-1-yl]acetic acid]",15%,> 20 µM,
"CCCC1(CC(=O)O)OCCc2c1[nH]c1cccc(-c3ccc(F)cc3)c21 (stereo not drawn) [Example 48, [5-(4-fluorophenyl)-1-propyl-1,3,4,9-tetrahydropyrano[3,4-b]indol-1-yl]acetic acid]",18%,> 20 µM,
"CCCC1(CC(=O)O)OCCc2c1[nH]c1cccc(-c3cccc(Cl)c3)c21 (stereo not drawn) [Example 49, [5-(3-chlorophenyl)-1-propyl-1,3,4,9-tetrahydropyrano[3,4-b]indol-1-yl]acetic acid]",< 5%,> 20 µM,
"C/C=C/CCC1(CC(=O)O)OCCc2c1[nH]c1c(Cl)ccc(Cl)c21 (stereo not drawn) [Example 50, (5,8-dichloro-1-[(3E)-pent-3-enyl]-1,3,4,9-tetrahydropyrano[3,4-b]indol-1-yl)acetic acid]",34%,> 20 µM,
"CC(C)C1(CC(=O)O)OCCc2c1[nH]c1c(Cl)ccc(Cl)c21 (stereo not drawn) [Example 51, (5,8-dichloro-1-isopropyl-1,3,4,9-tetrahydropyrano[3,4-b]indol-1-yl)acetic acid]",84%,7 µM,
"O=C(O)CC1(c2ccccc2)OCCc2c1[nH]c1c(Cl)ccc(Cl)c21 (stereo not drawn) [Example 52, (5,8-dichloro-1-phenyl-1,3,4,9-tetrahydropyrano[3,4-b]indol-1-yl)acetic acid]",11%,> 20 µM,
"O=C(O)CC1(c2ccoc2)OCCc2c1[nH]c1c(Cl)ccc(Cl)c21 (stereo not drawn) [Example 53, [5,8-dichloro-1-(3-furyl)-1,3,4,9-tetrahydropyrano[3,4-b]indol-1-yl]acetic acid]",62%,13 µM,
"CC(C)CCCC1(CC(=O)O)OCCc2c1[nH]c1c(Cl)ccc(Cl)c21 (stereo not drawn) [Example 54, [5,8-dichloro-1-(4-methylpentyl)-1,3,4,9-tetrahydropyrano[3,4-b]indol-1-yl]acetic acid]",6%,> 20 µM,
"COc1cc(C2(CC(=O)O)OCCc3c2[nH]c2c(Cl)ccc(Cl)c32)cc(OC)c1OC (stereo not drawn) [Example 55, [5,8-dichloro-1-(3,4,5-trimethoxyphenyl)-1,3,4,9-tetrahydropyrano[3,4-b]indol-1-yl]acetic acid]",< 5%,> 20 µM,
